For series [1], the system named is MCF-7 (estrogen receptor positive breast cancer cells). The settings on record: previously published values; cited from earlier work.
The next series deals with primary cortical neurons. Description: Toxicity of drug alone in neuronal cells (Live-Dead assay). The series is classed as cell-based. The source says:
More specifically, primary cortical neurons were recovered from embryonic day 18 rat brains as described previously (Michaelis et al., Immunological Localization And Kinetic Characterization Of A Na+/Ca2+Exchanger In Neuronal And Nonneuronal Cells, Brain Res. 661 104-116 (1994)). Briefly, about 10 to 16 brains were removed from fetuses delivered by cesarean section, and the cortices dissected out. The neurons were isolated and suspended in DMEM/F12 supplemented with 10% FBS and plated on sterile dishes or cover slips coated with 10 μg/ml poly-D-lysine and 5 μg/ml mouse laminin. After 24 hours, the serum-containing medium was removed, and neurons were maintained in Neurobasal medium (Gibco) with 2% B-27 supplements (Gibco). Cells were maintained in culture at 37° C. in 5% CO2 and 97% humidity for 7 to 8 eight days in vitro (DIV) before use. […] Stock solutions of Aβ were prepared in sterile water at a concentration of 1.3 mM and stored at −20° C. Aliquots of the stock solutions were diluted to 1 mM in sterile 50 mM Tris-HCl, pH 7.4, and incubated at 37° C. for 24 hours to promote oligomerization of the peptides prior to treatment of the neurons. The effects of KU-1/A4, GA, Aβ, or the indicated combinations on neuronal viability were determined by monitoring cell survival using the Live-Dead assay as previously described. […] Digital images from 6 fields per dish were captured, and the number of viable (green) and dead (red) cells counted. All experiments were conducted with duplicate dishes from at least two neuronal preparations for each treatment, with about 1,000 cells analyzed/treatment condition. The data are expressed as the fraction of viable cells calculated from the total number of neurons counted under each treatment condition. The significance of differences between cultures exposed to various treatment conditions was determined using Student's t-test.

Series [2] deals with SkBr3 (Her2 overexpressing breast cancer cells). To be noted: previously published values; cited from earlier work.
A further series concerns cancer cell lines. Description: Anti-proliferative activity, statements covering several cancer cell lines. Format: cell-based. As to the method:
Upon completion of synthesis of library of compounds in Examples 23 and 24, the compounds were evaluated for anti-proliferative activity against SkBr3 (Her2 overexpressing breast cancer cells), MCF-7 (estrogen receptor positive breast cancer cells), HCT-116 (colon cancer cells characterized by wild-type p53), PL45 (pancreatic cancer cells), LNCaP (androgen sensitive prostate cancer cells) and PC-3 (androgen independent prostate cancer cells) cell lines. […] The monosubstituted benzamide variants improved activity.
(§1) Cells were maintained in a 1:1 mixture of Advanced DMEM/F12 (Gibco) supplemented with non-essential amino acids, L-glutamine (2 mM), streptomycin (500 ng/mL), penicillin (100 units/mL), and 10% FBS. Cells were grown to confluence in a humidified atmosphere (37° C., 5% CO2), seeded (2000/well, 100 μl) in 96-well plates, and allowed to attach overnight. Compound or GDA at varying concentrations in DMSO (1% DMSO final concentration) was added, and cells were returned to the incubator for 72 hours. At 72 hours, the number of viable cells was determined using an MTS/PMS cell proliferation kit (Promega) per the manufacturer's instructions. Cells incubated in 1% DMSO were used at 100% proliferation, and values were adjusted accordingly. IC50 values were calculated from separate experiments performed in triplicate using GraphPad Prism.
as §1, with “μg/mL),” for “ng/mL),”, “μL)” for “μl)”

The subject of series [3] is HCT-116 (colon cancer cells characterized by wild-type p53). Kind of series: Anti-proliferation activity against HCT-116 cells. The series is classed as cell-based. To be noted: Homo sapiens.
Series [4] concerns MCF-7 (estrogen receptor positive breast cancer cells). Kind of series: Anti-proliferation activity against MCF-7 cells (MTS/PMS). The settings on record: Homo sapiens, MCF7, n = 3, read-out: IC50 MCF-7. Format: cell-based. Summed up: (§2)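 Viability after 72 h compound treatment (1% DMSO final, 37° C., 5% CO2) measured by MTS/PMS; plating density 2000 cells/well with overnight attachment.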

Series [5] has as its system PL45 (pancreatic cancer cells). Description: Anti-proliferation activity against PL45 cells. The series is classed as cell-based.
In series [6] the test system is LNCaP (androgen sensitive prostate cancer cells). Kind of series: Anti-proliferation activity against LNCaP cells. Format: cell-based. To be noted: Homo sapiens, LNCaP, n = 3, read-out: IC50 LNCaP. The gist of the method:
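Cells seeded at 2000/well in Advanced DMEM/F12 with 10% FBS and attached overnight, then given compound in 1% DMSO final for 72 h at 37 °C, 5% CO2. Viable cells by MTS/PMS read-out, normalised to 1% DMSO as 100% proliferation. IC50 from separate triplicate experiments.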

For series [7], the system named is PC-3 (androgen independent prostate cancer cells). Kind of series: Anti-proliferation activity against PC-3 cells. The series is classed as cell-based. To be noted: Homo sapiens, PC-3, n = 3, read-out: IC50 PC-3. The gist of the method: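 Antiproliferative activity was tested in PC-3 androgen-independent prostate cancer cells. Cells grown at 37° C. with 5% CO2 in Advanced DMEM/F12 (1:1) containing non-essential amino acids, 2 mM L-glutamine, streptomycin, penicillin and 10% FBS were plated at 2000/well in 96-well plates. Proliferation was normalized to 1% DMSO controls, and IC50 values from triplicate experiments were fitted in GraphPad Prism.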

The subject of series [8] is SkBr3 (Her2 overexpressing breast cancer cells). Description: Anti-proliferation activity against SkBr3 cells (MTS/PMS). Format: cell-based. To be noted: for IC50: Homo sapiens, SK-BR-3, n = 3, read-out: IC50 SkBr3. Summed up:
as §2

Series [9] concerns Hsp90 client proteins Her2, Raf and Akt in MCF-7 breast cancer cells. Kind of series: Hsp90 client protein degradation, Western blot in MCF-7 cells. Format: cell-based. As to the method:
FIG. 17 is a western blot analysis of Hsp90 client protein degradation assays against MCF-7 breast cancer cells. The concentration of compound 46 (in μM) is denoted above each lane. Geldamycin and DMSO were used as positive and negative controls, respectively.
In order to provide additional evidence that the growth inhibitory activity manifested by the 2-indoleamide compound 46 resulted from Hsp90 inhibition, 46 was evaluated by its ability to induce degradation of Hsp90-dependent client proteins. […] Since non-Hsp90-dependent substrates such as actin remained unchanged, the inhibition of cell growth was directly correlated to the degradation of Hsp90-dependent client proteins.
For orientation: Immunoblotting shows a protein as a band on a membrane.

For series [10], the system named is Hsp90 client protein Her-2 in Skbr3 breast cancer cells. Kind of series: Degradation of Her-2, Western blot in Skbr3 cells. The series is classed as cell-based. The settings on record: Homo sapiens, SK-BR-3, read-out: IC50 (concentration producing 50% degradation of Her-2), 24 hours, normalized against actin. As to the method:
After incubation, the cells were harvested, lysed, and equal amounts of the protein lysates loaded into SDS wells. After electrophoresis, the gel was probed with Her-2 and actin (control) antibodies.

Series [11] relates to Hsp90-dependent client proteins ErbB2 (Her2) and p53 in SKBr3 breast cancer cells. The settings on record: previous studies; cited from earlier work.
Where [12] appears, read: Table 4, biaryl analogues, n = 3.
Where [13] appears, read: Table 5, heterocyclic analogues, n = 3.
Where [14] appears, read: Table 5, heterocyclic analogues.

SMILES strings stand for the structures. Where two headings read alike, the source gives them in different places.

`COC1=C2C[C@@H](C)C[C@H](OC)[C@H](O)[C@@H](C)/C=C(\C)[C@H](OC(N)=O)[C@@H](OC)/C=C\C=C(/C)C(=O)NC(=CC1=O)C2=O` [GA, reference compound]: the IC50 is 0.133 µM in series [1] and 0.018 µM in series [2]. The “cytotoxicity in neuronal cells” value in the series with primary cortical neurons (10 μM, 24 hours) is recorded as “significant cytotoxicity”; in the series with primary cortical neurons (lower concentrations, 72 hours), “substantial cytotoxicity”. Moreover, the cytotoxicity result in the series on cancer cell lines (SkBr3 and MCF-7, 1 μM) is given as “almost complete cytotoxicity”.

As for `CO[C@@H]1[C@@H](O)[C@@H](O)[C@H](Oc2ccc3cc(NC(=O)/C=C/c4ccccc4)c(=O)oc3c2C)OC1(C)C` [compound 25, N-(7-((2R,3R,4S,5R)-3,4-Dihydroxy-5-methoxy-6,6-dimethyltetrahydro-2H-pyran-2-yloxy)-8-methyl-2-oxo-2H-chromen-3-yl)cinnamamide], the IC50 in [3] (Table 3, n = 3) turned out to be 3.2 ± 0.5 µM; in series [4] (Table 3), 4 ± 0.3 µM; in [5] (Table 3, n = 3), 3 ± 1 µM; in series [6] (Table 3), 4.5 ± 0.7 µM; in series [7] (Table 3), 3.9 ± 0.05 µM; in series [8] (Table 3), 2.6 ± 0.6 µM. Also, the “fold increase in inhibitory activity versus the saturated derivative (23)” value with cancer cell lines is recorded as “about 3 fold”.

Turning to `COc1ccccc1-c1cc(C(=O)Nc2cc3ccc(O[C@@H]4OC(C)(C)[C@H](OC)[C@@H](O)[C@H]4O)c(C)c3oc2=O)ccc1OC` [compound 32, N-(7-((2R,3R,4S,5R)-3,4-Dihydroxy-5-methoxy-6,6-dimethyltetrahydro-2H-pyran-2-yloxy)-8-methyl-2-oxo-2H-chromen-3-yl)-2′,6-dimethoxybiphenyl-3-carboxamide], the IC50 in series [3] (setting [12]) was 5.2 ± 2.1 µM; in series [4] (Table 4, biaryl analogues), 15.6 ± 6.3 µM; in series [5] (setting [12]), 3.8 ± 1.7 µM; in series [6] (Table 4, biaryl analogues), 6 ± 1 µM; in series [7] (Table 4, biaryl analogues), 52.3 ± 34.7 µM; in series [8] (Table 4, biaryl analogues), 7.1 ± 0.6 µM. For the same compound, in the series on cancer cell lines, the “fold improved inhibition compared to 28” value is on record as “about 2 fold”.

In the case of `COc1ccc(C(=O)Nc2cc3ccc(O[C@@H]4OC(C)(C)[C@H](OC)[C@@H](O)[C@H]4O)c(C)c3oc2=O)cc1-c1ccccc1O` [compound 35, N-(7-((2R,3R,4S,5R)-3,4-Dihydroxy-5-methoxy-6,6-dimethyltetrahydro-2H-pyran-2-yloxy)-8-methyl-2-oxo-2H-chromen-3-yl)-2′-hydroxy-6-methoxybiphenyl-3-carboxamide], the IC50 in series [3] (setting [12]) was determined as 4.7 ± 1.4 µM; in [4] (Table 4, biaryl analogues), 1.5 ± 0.1 µM; in [5] (setting [12]) it was 1.4 ± 0.2 µM; in series [7] (Table 4, biaryl analogues) it was 16.6 ± 4.4 µM; in series [8] (Table 4, biaryl analogues), 1.5 ± 0.1 µM. Besides, the “fold improved inhibition compared to 28” value in the series on cancer cell lines is given as “about 8 fold”.

As to `CO[C@@H]1[C@@H](O)[C@@H](O)[C@H](Oc2ccc3cc(NC(=O)c4cc5ccccc5[nH]4)c(=O)oc3c2C)OC1(C)C` [compound 46, N-(7-((2R,3R,4S,5R)-3,4-Dihydroxy-5-methoxy-6,6-dimethyltetrahydro-2H-pyran-2-yloxy)-8-methyl-2-oxo-2H-chromen-3-yl)-1H-indole-2-carboxamide], the IC50 was found to be 0.17 ± 0.01 µM in series [3] (setting [13]); 0.57 ± 0.07 µM in series [4] (setting [14]); 0.47 ± 0.34 µM in series [5] (setting [13]); 12.2 µM in series [6] (setting [14]); 22.3 ± 10.1 µM in series [7] (setting [14]); 0.37 ± 0.06 µM in [8] (setting [14]). Moreover, the “Hsp90 client proteins Her2, Raf and Akt” value in series [9] is given as “degraded in a concentration-dependent manner”. The Hsp90 level entry in [9] is “induced”. The “fold increased activity compared to novobiocin” value in series [8] (SkBr3 cells) is “greater than 500 fold”.

In the case of `CO[C@@H]1[C@@H](O)[C@@H](O)[C@H](Oc2ccc3cc(NC(=O)c4c[nH]c5ccccc45)c(=O)oc3c2C)OC1(C)C` [compound 47, N-(7-((2R,3R,4S,5R)-3,4-Dihydroxy-5-methoxy-6,6-dimethyltetrahydro-2H-pyran-2-yloxy)-8-methyl-2-oxo-2H-chromen-3-yl)-1H-indole-3-carboxamide], the IC50 stood at 3.5 ± 0.5 µM in series [3] (setting [13]); 5.3 ± 0.3 µM in series [4] (setting [14]); 1.8 ± 0.3 µM in series [5] (setting [13]); 2.3 ± 0.1 µM in [6] (setting [14]); 4.8 ± 2.4 µM in series [7] (setting [14]); 12.2 ± 1.5 µM in [8] (setting [14]). For the same compound, the “times less effective than compound 46” value in the series with cancer cell lines was 3-10 times.

For `CO[C@@H]1[C@@H](OC(N)=O)[C@@H](O)[C@H](Oc2ccc3c(O)c(NC(=O)c4ccc(O)c(CC=C(C)C)c4)c(=O)oc3c2C)OC1(C)C` [novobiocin, reference compound], in series [10], the IC50 was determined as 700 µM. In series [11], the “concentration inducing degradation of ErbB2” value is “about 700 μM”.
